{"source": "patent US20110104662A1", "about": "“Methods of Detecting Inhibitors of VIF-Mediated APOBEC3G Degradation and HIV” (RIGEL PHARMACEUTICALS, INC., priority 2007, published 2011)", "key": {"A3G-luciferase (A3G-luc) [1]": {"system": "A3G-luciferase (A3G-luc)", "assay": "APOBEC3G-luciferase activity in 293T cell lysate of co-transfected virus producer cells", "format": "cell-based", "details": "10 uM MG132", "from_the_text": "(§1) In all embodiments employing cotransfection of a wild-type or Δvif HIV genome together with an APOBEC3G-fluorescent reporter fusion, adjusting the relative ratio of plasmids encoding the wild-type (WT) or Δvif HIV genomes and A3G-luciferase (A3G-luc) for cotransfection in virus producer cells (e.g., 293T cells) is useful for achieving an optimal signal to background ratio and dynamic assay range for antiviral compound characterization. Adjusting the cotransfection ratio is also useful for obtaining a linear correlation between the fluorescent reporter (e.g., luciferase) signal and the level of A3G-fluorescent reporter protein detected by Western blotting. The luciferase activity ratio of (Δvif HIV+A3G-luc) over (WT HIV+A3G-luc) in both virus supernatant and 293T cell lysates was measured.\n(§2) 293T cells were seeded in 6-well plates at 500,000 cells/well density. On the second day, 4 μg of wild-type or delta vif HIV-1 construct and pcDNA3.1-APOBEC3G-luciferase construct plasmid DNA were co-transfected into 293T cells using Lipofectamine 2000 (Invitrogen). On the third day, cells were detached with trypsin and plated into 24-well plates at 300,000 cells/well density. On the fourth day, medium was replaced in each well with either 0.5% DMSP medium or with compound and 0.5% DMSO containing medium.\nTwenty hours post dosing, the virus producing 293T cells of Example 5 were lysed with 200 μL of Bright-Glo lysis buffer in 24-well plates. Cell lysates were diluted 1:100 in PBS. 10 μL of each lysate sample were transferred to small well 96-well plates and 10 μL of Bright-Glo substrate were added to each well. The luciferase activity from the cell lysates was then detected using a Top Count reader. The total protein concentration was determined using the Quant-IT Protein Assay Kit (Molecular Probes). The luciferase activity was normalized relative to total cellular protein by dividing the background corrected luciferase light units by the total protein concentration."}, "A3G-luciferase (A3G-luc) [2]": {"system": "A3G-luciferase (A3G-luc)", "assay": "APOBEC3G-luciferase activity in virus supernatant of co-transfected 293T cells", "format": "cell-based", "details": "10 uM MG132", "from_the_text": "as §1, §2\nTwenty hours post dosing, the culture supernatant from Example 5 was harvested and filtered through a 0.45μ filter. Twenty microliters of virus supernatant from each sample were transferred into a 96-Well plate. 30 μL of culture medium and 50 μL of Bright-Glo lysis buffer (Promega), were added to each well, followed by 50 μL of Bright-Glo Substrate (Promega). The luciferase activity from the virus supernatant was then detected using a Top Count reader (Perkin Elmer). The concentration of virus particles in the supernatant was determined by p24 ELISA (Perkin Elmer). The luciferase activity of the virus supernatant was then normalized relative to the concentration of virus particles by dividing the background corrected luciferase light units by the p24 values."}, "[3]": {"system": "Vif-mediated APOBEC3G degradation", "assay": "Cell-based screening assay, Vif/APOBEC3G-luciferase HeLa line", "parameters": "species or system HIV", "details": "10 μM MG132 for 24 hours; selected blasticidin-resistant Vif/APOBEC3G-luciferase HeLa clone", "from_the_text": "Inhibitors of Vif-mediated APOBEC3G degradation were screened using a cell-based assay. The assay uses HeLa cells that stably expresses Vif and APOBEC3G fused at its C-terminus to firefly luciferase. Under steady-state conditions, there is very little luciferase activity. When degradation of the APOBEC3G-luciferase fusion is inhibited, a significant increase in the luciferase activity is observed.\nConstruction of screening line (Vif/APOBEC3G-luciferase HeLa line). HeLa cells were cotransfected with a 1:1 ratio of pcDNA6-Vif and pcDNA3.1-APOBEC3G-luciferase plasmids using Fugene transfection reagent. Twenty-four hours after transfection, cells were trypsinized and different dilutions plated on 10 cm dishes. After attachment, stable transfectants were selected using medium containing 10 μg/ml blasticidin S. The blasticidin resistance gene is carried in the pcDNA6-Vif plasmid. Individual clones were plated in duplicate 96-well plates, treated with either DMSO or 10 μM MG132 for 24 hours, and then assayed for luciferase activity. […] The presence of Vif and APOBEC3G-luciferase proteins was confirmed by treating cells with 10 μM MG132 overnight and analyzing cell lysates for both Vif and APOBEC3G-luciferase by western blotting (See FIG. 7B)."}, "[4]": {"details": "Experiment 1, co-transfection ratio 19:1"}, "[5]": {"details": "Experiment 1, co-transfection ratio 39:1"}, "[6]": {"details": "Experiment 1, co-transfection ratio 79:1"}, "[7]": {"details": "Experiment 1, co-transfection ratio 159:1"}, "[8]": {"details": "Experiment 2, co-transfection ratio 19:1"}, "[9]": {"details": "Experiment 2, co-transfection ratio 39:1"}, "[10]": {"details": "Experiment 2, co-transfection ratio 79:1"}, "[11]": {"details": "Experiment 2, co-transfection ratio 159:1"}}, "note": "Where a SMILES comes first, the peptide text is derived from it. The star is where a group is joined. Cbz = O=C(OCc1ccccc1)*", "data": [{"smiles": "CC(C)C[C@@H](C=O)NC(=O)[C@H](CC(C)C)NC(=O)[C@H](CC(C)C)NC(=O)OCc1ccccc1", "note": "[MG132] (Cbz-Leu-Leu-Leu-aldehyde)", "values": [{"measurement": "RLU ratio (delta vif HIV + A3G-luc/WT HIV + A3G-luc), 293 T cell lysate (RLU)", "setting": "A3G-luciferase (A3G-luc) [1]; [4]", "value": 2.6}, {"measurement": "RLU ratio (delta vif HIV + A3G-luc/WT HIV + A3G-luc), 293 T cell lysate (RLU)", "setting": "A3G-luciferase (A3G-luc) [1]; [5]", "value": 2.4}, {"measurement": "RLU ratio (delta vif HIV + A3G-luc/WT HIV + A3G-luc), 293 T cell lysate (RLU)", "setting": "A3G-luciferase (A3G-luc) [1]; [6]", "value": 3.7}, {"measurement": "RLU ratio (delta vif HIV + A3G-luc/WT HIV + A3G-luc), 293 T cell lysate (RLU)", "setting": "A3G-luciferase (A3G-luc) [1]; [7]", "value": 6.8}, {"measurement": "RLU ratio (delta vif HIV + A3G-luc/WT HIV + A3G-luc), 293 T cell lysate (RLU)", "setting": "A3G-luciferase (A3G-luc) [1]; [8]", "value": 1.4}, {"measurement": "RLU ratio (delta vif HIV + A3G-luc/WT HIV + A3G-luc), 293 T cell lysate (RLU)", "setting": "A3G-luciferase (A3G-luc) [1]; [9]", "value": 1.8}, {"measurement": "RLU ratio (delta vif HIV + A3G-luc/WT HIV + A3G-luc), 293 T cell lysate (RLU)", "setting": "A3G-luciferase (A3G-luc) [1]; [10]", "value": 2.9}, {"measurement": "RLU ratio (delta vif HIV + A3G-luc/WT HIV + A3G-luc), 293 T cell lysate (RLU)", "setting": "A3G-luciferase (A3G-luc) [1]; [11]", "value": 8.7}, {"measurement": "RLU ratio (delta vif HIV + A3G-luc/WT HIV + A3G-luc), Virus sup. (RLU)", "setting": "A3G-luciferase (A3G-luc) [2]; [4]", "value": 3.2}, {"measurement": "RLU ratio (delta vif HIV + A3G-luc/WT HIV + A3G-luc), Virus sup. (RLU)", "setting": "A3G-luciferase (A3G-luc) [2]; [5]", "value": 5.5}, {"measurement": "RLU ratio (delta vif HIV + A3G-luc/WT HIV + A3G-luc), Virus sup. (RLU)", "setting": "A3G-luciferase (A3G-luc) [2]; [6]", "value": 5.9}, {"measurement": "RLU ratio (delta vif HIV + A3G-luc/WT HIV + A3G-luc), Virus sup. (RLU)", "setting": "A3G-luciferase (A3G-luc) [2]; [7]", "value": 4.7}, {"measurement": "RLU ratio (delta vif HIV + A3G-luc/WT HIV + A3G-luc), Virus sup. (RLU)", "setting": "A3G-luciferase (A3G-luc) [2]; [8]", "value": 9.2}, {"measurement": "RLU ratio (delta vif HIV + A3G-luc/WT HIV + A3G-luc), Virus sup. (RLU)", "setting": "A3G-luciferase (A3G-luc) [2]; [9]", "value": 3.9}, {"measurement": "RLU ratio (delta vif HIV + A3G-luc/WT HIV + A3G-luc), Virus sup. (RLU)", "setting": "A3G-luciferase (A3G-luc) [2]; [10]", "value": 16.8}, {"measurement": "RLU ratio (delta vif HIV + A3G-luc/WT HIV + A3G-luc), Virus sup. (RLU)", "setting": "A3G-luciferase (A3G-luc) [2]; [11]", "value": 9.2}, {"measurement": "window in luciferase activity between DMSO and MG132", "setting": "[3]", "value": "at least a ten-fold window in luciferase activity"}]}]}
